The values that follow come from BindingDB's records for doi:10.1021/bi1013479 (University of California Irvine, 2010).

Common to all, as to assay: Inhibitory Assay
The target in assay [1] is Nitric oxide synthase, brain (Homo sapiens, UniProt P29475). The source says: (§1) Inhibition assay using nitric oxide synthases.
The target in assay [2] is T1, Nitric oxide synthase, endothelial (Homo sapiens, UniProt P29474).
T1 sequence (P29474 whole entry): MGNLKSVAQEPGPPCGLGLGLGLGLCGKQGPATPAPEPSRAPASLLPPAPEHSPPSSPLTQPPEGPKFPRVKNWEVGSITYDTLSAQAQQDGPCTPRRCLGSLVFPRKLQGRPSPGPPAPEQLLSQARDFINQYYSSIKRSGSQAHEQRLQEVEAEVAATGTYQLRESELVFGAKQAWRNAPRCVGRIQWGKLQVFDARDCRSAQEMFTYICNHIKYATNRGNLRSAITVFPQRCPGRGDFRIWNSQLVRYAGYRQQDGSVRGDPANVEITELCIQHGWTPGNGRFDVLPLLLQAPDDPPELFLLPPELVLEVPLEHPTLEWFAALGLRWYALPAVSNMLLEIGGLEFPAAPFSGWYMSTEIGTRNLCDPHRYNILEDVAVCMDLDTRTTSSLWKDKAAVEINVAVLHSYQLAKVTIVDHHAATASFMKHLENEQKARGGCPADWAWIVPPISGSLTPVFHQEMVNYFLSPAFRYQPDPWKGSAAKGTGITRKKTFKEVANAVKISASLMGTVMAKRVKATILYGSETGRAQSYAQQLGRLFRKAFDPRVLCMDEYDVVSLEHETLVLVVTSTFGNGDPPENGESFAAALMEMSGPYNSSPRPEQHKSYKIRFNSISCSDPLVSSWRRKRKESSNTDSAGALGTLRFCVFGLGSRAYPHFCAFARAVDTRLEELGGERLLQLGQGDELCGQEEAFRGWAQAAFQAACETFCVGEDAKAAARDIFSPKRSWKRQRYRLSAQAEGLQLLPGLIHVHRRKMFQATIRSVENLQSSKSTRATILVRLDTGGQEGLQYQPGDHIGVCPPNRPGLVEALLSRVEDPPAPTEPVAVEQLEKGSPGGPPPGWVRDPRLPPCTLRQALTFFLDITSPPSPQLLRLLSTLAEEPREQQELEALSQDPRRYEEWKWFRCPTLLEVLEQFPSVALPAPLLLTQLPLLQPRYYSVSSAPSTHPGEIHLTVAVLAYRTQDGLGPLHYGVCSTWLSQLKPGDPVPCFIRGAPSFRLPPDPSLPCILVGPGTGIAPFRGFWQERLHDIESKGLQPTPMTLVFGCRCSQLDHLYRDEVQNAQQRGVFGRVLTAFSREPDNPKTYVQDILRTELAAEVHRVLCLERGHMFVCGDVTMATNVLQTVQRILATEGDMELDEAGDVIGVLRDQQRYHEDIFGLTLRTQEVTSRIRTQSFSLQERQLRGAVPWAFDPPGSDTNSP
Description: as §1

The target in assay [3] is Nitric oxide synthase, inducible (Homo sapiens, UniProt P35228).
Sequence of Nitric oxide synthase, inducible (P35228 whole entry): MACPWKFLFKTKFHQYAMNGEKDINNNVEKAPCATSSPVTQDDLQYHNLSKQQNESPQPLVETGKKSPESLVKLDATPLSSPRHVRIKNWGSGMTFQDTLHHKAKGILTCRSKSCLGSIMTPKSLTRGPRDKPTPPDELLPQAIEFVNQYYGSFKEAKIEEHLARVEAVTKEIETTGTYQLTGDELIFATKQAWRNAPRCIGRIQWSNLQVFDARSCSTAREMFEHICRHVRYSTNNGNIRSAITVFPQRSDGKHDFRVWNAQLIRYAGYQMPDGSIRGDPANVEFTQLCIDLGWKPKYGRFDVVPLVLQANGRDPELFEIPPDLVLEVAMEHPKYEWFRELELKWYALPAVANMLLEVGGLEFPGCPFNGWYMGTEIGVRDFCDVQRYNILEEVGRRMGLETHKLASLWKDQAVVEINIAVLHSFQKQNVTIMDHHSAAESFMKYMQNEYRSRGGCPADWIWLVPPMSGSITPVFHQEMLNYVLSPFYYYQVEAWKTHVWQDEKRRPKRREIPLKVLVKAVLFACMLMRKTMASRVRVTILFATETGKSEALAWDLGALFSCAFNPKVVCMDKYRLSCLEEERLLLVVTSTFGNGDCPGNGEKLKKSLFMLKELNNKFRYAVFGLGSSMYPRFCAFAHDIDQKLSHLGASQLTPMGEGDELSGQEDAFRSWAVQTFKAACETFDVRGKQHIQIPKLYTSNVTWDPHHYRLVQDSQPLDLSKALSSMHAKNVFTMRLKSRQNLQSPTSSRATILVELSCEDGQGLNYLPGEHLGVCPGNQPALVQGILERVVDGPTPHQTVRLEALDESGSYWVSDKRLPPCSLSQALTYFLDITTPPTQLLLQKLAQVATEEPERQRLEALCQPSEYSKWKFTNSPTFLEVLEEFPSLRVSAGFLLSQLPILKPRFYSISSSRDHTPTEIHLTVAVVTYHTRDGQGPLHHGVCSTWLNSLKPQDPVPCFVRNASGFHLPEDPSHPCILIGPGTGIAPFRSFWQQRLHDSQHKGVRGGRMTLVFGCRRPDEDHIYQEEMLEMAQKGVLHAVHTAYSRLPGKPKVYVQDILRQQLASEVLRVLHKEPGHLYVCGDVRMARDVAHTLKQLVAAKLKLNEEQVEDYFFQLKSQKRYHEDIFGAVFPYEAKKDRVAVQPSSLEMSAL
Description: as §1

SMILES strings stand for the structures.

Broadly, the Ki is the dissociation constant of the complex between target and ligand, obtained from inhibition or displacement.

Sequence of Nitric oxide synthase, brain (P29475 whole entry): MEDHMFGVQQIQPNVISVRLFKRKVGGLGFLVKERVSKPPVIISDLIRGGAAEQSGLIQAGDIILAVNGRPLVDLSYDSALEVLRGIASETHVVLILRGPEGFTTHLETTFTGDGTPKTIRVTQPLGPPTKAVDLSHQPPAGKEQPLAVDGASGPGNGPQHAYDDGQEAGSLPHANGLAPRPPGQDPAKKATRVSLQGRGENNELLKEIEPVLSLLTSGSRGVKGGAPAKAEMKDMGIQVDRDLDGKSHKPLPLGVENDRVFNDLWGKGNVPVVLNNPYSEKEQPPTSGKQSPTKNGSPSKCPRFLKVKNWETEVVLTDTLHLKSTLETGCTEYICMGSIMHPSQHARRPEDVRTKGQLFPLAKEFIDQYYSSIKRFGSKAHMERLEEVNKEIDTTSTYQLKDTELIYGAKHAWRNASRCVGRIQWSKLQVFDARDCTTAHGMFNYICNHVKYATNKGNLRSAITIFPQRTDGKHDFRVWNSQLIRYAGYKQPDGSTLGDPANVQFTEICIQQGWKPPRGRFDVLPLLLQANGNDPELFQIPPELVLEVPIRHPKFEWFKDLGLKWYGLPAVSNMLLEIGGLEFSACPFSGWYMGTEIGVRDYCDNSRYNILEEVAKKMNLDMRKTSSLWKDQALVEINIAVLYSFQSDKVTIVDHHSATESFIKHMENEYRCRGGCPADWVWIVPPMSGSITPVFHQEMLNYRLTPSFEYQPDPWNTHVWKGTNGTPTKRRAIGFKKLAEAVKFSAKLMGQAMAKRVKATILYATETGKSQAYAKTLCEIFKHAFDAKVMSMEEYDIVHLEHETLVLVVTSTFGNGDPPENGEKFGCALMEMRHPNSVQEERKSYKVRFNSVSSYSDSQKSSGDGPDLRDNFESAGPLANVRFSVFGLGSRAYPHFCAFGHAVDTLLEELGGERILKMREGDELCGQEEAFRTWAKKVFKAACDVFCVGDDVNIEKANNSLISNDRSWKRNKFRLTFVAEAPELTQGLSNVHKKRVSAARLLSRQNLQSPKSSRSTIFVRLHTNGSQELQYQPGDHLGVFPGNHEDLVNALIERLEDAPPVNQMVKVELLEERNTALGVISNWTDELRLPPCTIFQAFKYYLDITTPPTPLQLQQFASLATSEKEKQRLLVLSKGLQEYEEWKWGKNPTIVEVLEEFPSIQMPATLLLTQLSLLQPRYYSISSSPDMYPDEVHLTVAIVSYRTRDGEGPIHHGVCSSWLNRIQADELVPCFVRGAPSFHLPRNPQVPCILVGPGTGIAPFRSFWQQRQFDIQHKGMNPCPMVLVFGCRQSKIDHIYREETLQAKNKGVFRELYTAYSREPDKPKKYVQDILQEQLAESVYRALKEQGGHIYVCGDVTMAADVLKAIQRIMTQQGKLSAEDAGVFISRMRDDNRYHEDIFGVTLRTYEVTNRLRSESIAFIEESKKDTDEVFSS

As to `Cc1cc(N)nc(CCc2cccc(CCc3cc(C)nc(N)c3)n2)c1`, the results for the inhibition constant (Ki) in assay [1], in assay [2] and in assay [3] were 0.195 µM, 20 µM and 12.6 µM, respectively.
Turning to `Cc1cc(N)nc(CCc2cncc(CCc3cc(C)nc(N)c3)c2)c1` [6-(2-{5-[2-(2-amino-6-methylpyridin-4-yl)ethyl]pyridin-3-yl}ethyl)-4-methylpyridin-2-amine], the inhibition constant (Ki) is 0.103 µM in assay [1], 16.1 µM in assay [2] and 1.91 µM in assay [3].
`Cc1cc(N)nc(CCc2cccc(CCc3cc(C)cc(N)n3)c2)c1` [NOS Inhibitor, 3h]: the Ki was 4.2 µM in assay [2] and 2.73 µM in assay [3].
As for `Cc1cc(N)nc(CCc2cc(N)cc(CCc3cc(C)cc(N)n3)c2)c1` [6,6'-[(5-aminobenzene-1,3-diyl)diethane-2,1-diyl]bis(4-methylpyridin-2-amine)], the Ki in assay [1] came to 0.085 µM; in assay [2], 4.95 µM; in assay [3] it was 3.4 µM.
